Experimental data reported in patent publication US20090269798A1, “METHOD AND SYSTEM FOR SELECTING CHEMOTHERAPEUTIC AGENTS” (UNIVERSITY OF NORTHERN IOWA RESEARCH FOUNDATION, priority 2008, published 2009).
Like-named read-outs stand apart in the source and are kept apart here. Marks after values point to notes of the source that are not given here.

What was measured:
[1] = tested on: K-562 (human erythroleukemia); conditions: 96 hours, ± standard deviation
Procedure: (§1) In the experiments shown in Table1 a/b, the indicated concentrations of hydrogen peroxide were added to the various types of cells and they were incubated for 96 hours until growth was measured by the ^3H-thymidine assay or viability determined by the 3-(4,5-diphenylthiazol-2-yl)-2,5-diphenyltetrazolium bromide (“MTT”) assay. Numbers represent triplicate or quadruplicate determinations.

[2] = tested on: Jurkat (human T lymphocytic leukemia); conditions: 96 hours, ± standard deviation
Procedure: as §1

[3] = tested on: THP-1 (human monocytic leukemia); conditions: 96 hours, ± standard deviation
Procedure: as §1

[4] = tested on: YT-INDY (human NK cell leukemia); conditions: 96 hours, ± standard deviation
Procedure: as §1

Normal cells = conditions: 96 hours, ± standard deviation
Procedure: as §1

Jurkat cells = conditions: four-hour exposure, 25 μM H2O2

Structure (SMILES): OO [Hydrogen Peroxide, hydrogen peroxide]
- amount of cell division remaining (compared to control cells without hydrogen peroxide) ([1]; 25 μM hydrogen peroxide): 41.6 ± 24.5
- level of live cells remaining (compared to control cells without hydrogen peroxide) ([1]; 25 μM hydrogen peroxide): 58.6 ± 3.2
- amount of cell division remaining (compared to control cells without hydrogen peroxide) ([1]; 50 μM hydrogen peroxide): 7.1 ± 5.1
- level of live cells remaining (compared to control cells without hydrogen peroxide) ([1]; 50 μM hydrogen peroxide): 19.6 ± 1.2
- amount of cell division remaining (compared to control cells without hydrogen peroxide) ([1]; 100 μM hydrogen peroxide): 4.3 ± 2.6
- level of live cells remaining (compared to control cells without hydrogen peroxide) ([1]; 100 μM hydrogen peroxide): 8.9 ± 0.2
- amount of cell division remaining (compared to control cells without hydrogen peroxide) ([1]; 200 μM hydrogen peroxide): 2.7 ± 0.3
- level of live cells remaining (compared to control cells without hydrogen peroxide) ([1]; 200 μM hydrogen peroxide): 8.0 ± 0.4
- amount of cell division remaining (compared to control cells without hydrogen peroxide) ([2]; 25 μM hydrogen peroxide): 1.2 ± 0.4
- amount of cell division remaining (compared to control cells without hydrogen peroxide) ([2]; 50 μM hydrogen peroxide): 2.4 ± 1.1
- amount of cell division remaining (compared to control cells without hydrogen peroxide) ([2]; 100 μM hydrogen peroxide): 1.3 ± 1.1
- amount of cell division remaining (compared to control cells without hydrogen peroxide) ([2]; 200 μM hydrogen peroxide): 1.0 ± 0.2
- amount of cell division remaining (compared to control cells without hydrogen peroxide) ([3]; 25 μM hydrogen peroxide): 115.8 ± 10.6
- level of live cells remaining (compared to control cells without hydrogen peroxide) ([3]; 25 μM hydrogen peroxide): 103.0 ± 2.2
- amount of cell division remaining (compared to control cells without hydrogen peroxide) ([3]; 50 μM hydrogen peroxide): 102.8 ± 5.9
- level of live cells remaining (compared to control cells without hydrogen peroxide) ([3]; 50 μM hydrogen peroxide): 101.8 ± 1.8
- amount of cell division remaining (compared to control cells without hydrogen peroxide) ([3]; 100 μM hydrogen peroxide): 91.0 ± 0.2
- level of live cells remaining (compared to control cells without hydrogen peroxide) ([3]; 100 μM hydrogen peroxide): 95.6 ± 0.6
- amount of cell division remaining (compared to control cells without hydrogen peroxide) ([3]; 200 μM hydrogen peroxide): 63.2 ± 7.1
- level of live cells remaining (compared to control cells without hydrogen peroxide) ([3]; 200 μM hydrogen peroxide): 65.6 ± 2.0
- amount of cell division remaining (compared to control cells without hydrogen peroxide) ([4]; 25 μM hydrogen peroxide): 109.2 ± 2.4
- level of live cells remaining (compared to control cells without hydrogen peroxide) ([4]; 25 μM hydrogen peroxide): 68.2 ± 4.8
- amount of cell division remaining (compared to control cells without hydrogen peroxide) ([4]; 50 μM hydrogen peroxide): 2.8 ± 0.8
- level of live cells remaining (compared to control cells without hydrogen peroxide) ([4]; 50 μM hydrogen peroxide): 32.1 ± 2.6
- amount of cell division remaining (compared to control cells without hydrogen peroxide) ([4]; 100 μM hydrogen peroxide): 3.7 ± 2.5
- level of live cells remaining (compared to control cells without hydrogen peroxide) ([4]; 100 μM hydrogen peroxide): 29.7 ± 1.0
- amount of cell division remaining (compared to control cells without hydrogen peroxide) ([4]; 200 μM hydrogen peroxide): 10.2 ± 3.5
- level of live cells remaining (compared to control cells without hydrogen peroxide) ([4]; 200 μM hydrogen peroxide): 27.5 ± 0.5
- amount of cell division remaining (compared to control cells without hydrogen peroxide) (Normal cells; 25 μM hydrogen peroxide): 68.2 ± 5.4^b
- level of live cells remaining (compared to control cells without hydrogen peroxide) (Normal cells; 25 μM hydrogen peroxide): 100.6 ± 3.3^b
- amount of cell division remaining (compared to control cells without hydrogen peroxide) (Normal cells; 50 μM hydrogen peroxide): 84.4 ± 12.3
- level of live cells remaining (compared to control cells without hydrogen peroxide) (Normal cells; 50 μM hydrogen peroxide): 102.7 ± 5.5
- amount of cell division remaining (compared to control cells without hydrogen peroxide) (Normal cells; 100 μM hydrogen peroxide): 92.5 ± 19.9
- level of live cells remaining (compared to control cells without hydrogen peroxide) (Normal cells; 100 μM hydrogen peroxide): 89.4 ± 0.9
- amount of cell division remaining (compared to control cells without hydrogen peroxide) (Normal cells; 200 μM hydrogen peroxide): 81.9 ± 9.2
- level of live cells remaining (compared to control cells without hydrogen peroxide) (Normal cells; 200 μM hydrogen peroxide): 83.0 ± 1.8
- killing of Jurkat cells (Jurkat cells): significant killing
